Reference: patent EP3705478B1, “TRIAZINE COMPOUND AND PHARMACEUTICALLY ACCEPTABLE SALT THEREOF” (Shenzhen Forward Pharmaceuticals Co., Ltd., priority 2017, dated 2018)
Where two headings read alike, the source gives them in different places.

Key:
[1] = system: BalF3-DTM-EGFR (mutant EGFR) cells; assay: Test 5: Proliferation Test of Ba/F3-DTM-EGFR cells (Cell Titer-Glo); type: cell-based; conditions: for Inhibitory selectivity of the compound, Ratio of IC50 value of Test 4 to IC50 value of Test 5: Ba/F3-CAT-EGFR vs Ba/F3-DTM-EGFR cells; for IC50: Ba/F3-DTM-EGFR cells (T790M mutation and Exon19-deficient EGFR), 72 hours
Description: Ba/F3-DTM-EGFR cell viability detection is based on the detection technology developed by CellTiter-Glo®. […] This cell strain lives depending on the kinase activity of EGFR, if the mutant EGFR is inhibited by a small molecule compound, the cell strain will die. Therefore, the specificity and activity of EGFR small molecules on mutant EGFR may be evaluated by observing the effect of EGFR small molecules on cell viability.
BalF3-DTM-EGFR (mutant EGFR) cells are cultured in RPMI1640 medium containing 10% fetal bovine serum and 2 mM glutamine. Cells are grown in a humidified incubator with 5% CO2 at 37°C.
(§1) The number of viable cells in the culture is determined according to the protocol described in Cell Titer-Glo Luminescent cell Viability Assay (Promega catalog number: # G7570) of Promega company. 100 µl of cells (3000 cells/well) are cultured in growth medium in a Corning 96-well plate with black transparent bottom, culturing in a humidified incubator with 5% CO2 at 37°C overnight. The compound serially diluted in 100% DMSO is added to the cells by pipette, culturing the cells for another 72 hours. 100 µl of the mixed Cell Titer-Glo reagent is added to the cells in the 96-well culture plate to lyse the cells, mixing gently. Subsequently, the […] is detected on the Envision microplate detector to obtain data of the compound. Finally, the data is input into a suitable software package (such as Prism) for curve fitting analysis.

[2] = system: Ba/F3-CAT-EGFR (wild-type EGFR) cells; assay: Test 4: Proliferation Test of BalF3-CAT-EGFR cells (Cell Titer-Glo); type: cell-based; conditions: 72 hours
Excerpt: BalF3-CAT-EGFR cell viability detection is based on the detection technology developed by CellTiter-Glo®. BalF3 cells are transformed by overexpressing the intracellular kinase region of wild-type EGFR to construct a CAT-EGFR tool cell strain. This cell strain lives depending on the kinase activity of EGFR, if the wild-type EGFR is inhibited by a small molecule compound, the cell strain will die. Therefore, the specificity and activity of EGFR small molecules on wild-type EGFR may be evaluated by observing the effect of EGFR small molecules on cell viability.
Ba/F3-CAT-EGFR (wild-type EGFR) cells are cultured in RPMI1640 medium containing 10% fetal bovine serum and 2 mM glutamine. Cells are grown in a humidified incubator with 5% CO2 at 37°C.
as §1

A431 (wild-type EGFR) = assay: Test 2: Proliferation Test of Wild-type EGFR Cells (Cell Titer-Glo); type: cell-based; conditions: Homo sapiens, read-out: IC50 value, Test 2
Description: The human […] cell line A431 (wild-type EGFR) is obtained from the American Type Culture Collection. […] cells are cultured in RPMI1640 medium containing 10% fetal bovine serum and 2 mM glutamine. Cells are grown in a humidified incubator with 5% CO2 at 37°C.
as §1, with “company. 90” for “company. 100”, “cells (8000” for “cells (3000”

[3] = system: NCI-H1975 (L858R/T790M double mutant EGFR); assay: Test 3: Proliferation Test of L858R/T790M EGFR (double mutant) cells (Cell Titer-Glo); type: cell-based, human; conditions: for IC50: Homo sapiens, NCI-H1975 cells, 72 hours; for Ratio of IC50 value of Test 2 to that of Test 3: selectivity: wild-type EGFR cells vs L858R/T790M EGFR (double mutant) cells
Description: (§2) NCI-H1975 cells are cultured in RPMI1640 medium containing 10% fetal bovine serum and 2 mM glutamine. Cells are grown in a humidified incubator with 5% CO2 at 37°C.
as §1, with “company. 90” for “company. 100”, “cells (8000” for “cells (3000”

[4] = molecular target: T1, L858R/T790M EGFR (double mutant) (Homo sapiens, UniProt P00533, L858R/T790M); assay: Test 1: Phosphorylation Test of L858R/T790M EGFR (double mutant) Cells (phospho-EGFR ELISA); type: cell-based; conditions: NCI-H1975 cells, p-EGFR in cell lysate, compound incubation 2 hours
T1 construct: The detection of phosphorylated p-EGFR of endogenous cells in cell lysate; host or cells: NCI-H1975
Description: as §2
The detection of phosphorylated p-EGFR of endogenous cells in cell lysate is performed according to the protocol described in the DuoSet IC Human Phospho-EGFR ELISA (R&D Systems catalog number: # DYC1095) of R&D Systems Company. 90 µl of cells (8000 cells/well) are cultured in growth medium in a Corning 96-well plate with black transparent bottom, after culturing in a humidified incubator with 5% CO2 at 37°C overnight, the cell culture medium is replaced with RPMI1640 medium containing 1% fetal bovine serum and 2 mM glutamine to culture continuously. The compound serially diluted in 100% DMSO is added to the cells by pipette, and after gently mixing the medium, the cells are incubated for another 2 hours. 100 µl of 1X lysis buffer is added to each well. Greiner high-binding 96-well plates are coated with capture antibody, and then blocked with 3% BSA. After removing the blocking solution, 100 µl of lysate is transferred to a Greiner high-binding 96-well plate, then incubating for 2 hours. After gently mixing and washing the culture plate with PBS, 100 µl of detection antibody is added, then incubating for 2 hours. […] 100 µl of stop solution is added to the culture plate, and the absorbance of each well at 450 nm wavelength is measured. Finally, the data is input into a suitable software package (such as Prism) for curve fitting analysis.

[5] = Test 6: Test of Plasma Protein Binding Rate (equilibrium dialysis), human plasma; type: in vitro ADME; conditions: equilibrium dialysis at 37°C for 4 hours, read-out: % Unbound of human plasma sample in Test 6
Description: (§3) The test of plasma protein binding rate is performed by using the 96-well equilibrium dialysis device from HTDialysis Company. The human plasma samples or mouse plasma samples with a concentration of 2 µM for the test and control compounds are performed equilibrium dialysis at 37°C for 4 hours so as to conduct the protein binding study. 150 µL of plasma sample with the test compound is added to the administration end of each dialysis well, and 150 µL of blank dialysis buffer is added to the receiving end corresponding to the dialysis well. The dialysis plate is then placed in a humidified incubator with 5% CO2 to incubate at 37°C for 4 hours. After dialysis, 50 µL of the dialyzed buffer sample and the dialyzed plasma sample are transferred to a new 96-well plate (sample receiving plate). The corresponding volume of corresponding blank plasma or buffer is added to the sample. All samples are analyzed by LC/MS/MS after protein precipitation. The concentration of the sample is expressed as the ratio of the peak area of the compound to the internal standard substance (semi-quantitative). Finally, the % Unbound, % Bound, and % Recovery of the compound are calculated according to the formula.

[6] = Test 6: Test of Plasma Protein Binding Rate (equilibrium dialysis), mouse plasma; type: in vitro ADME; conditions: equilibrium dialysis at 37°C for 4 hours, read-out: % Unbound of mouse plasma sample in Test 6
Description: as §3

[7] = A-431, wild-type EGFR cells, 72 hours

T1 sequence (P00533 25-1210 T790M/L858R): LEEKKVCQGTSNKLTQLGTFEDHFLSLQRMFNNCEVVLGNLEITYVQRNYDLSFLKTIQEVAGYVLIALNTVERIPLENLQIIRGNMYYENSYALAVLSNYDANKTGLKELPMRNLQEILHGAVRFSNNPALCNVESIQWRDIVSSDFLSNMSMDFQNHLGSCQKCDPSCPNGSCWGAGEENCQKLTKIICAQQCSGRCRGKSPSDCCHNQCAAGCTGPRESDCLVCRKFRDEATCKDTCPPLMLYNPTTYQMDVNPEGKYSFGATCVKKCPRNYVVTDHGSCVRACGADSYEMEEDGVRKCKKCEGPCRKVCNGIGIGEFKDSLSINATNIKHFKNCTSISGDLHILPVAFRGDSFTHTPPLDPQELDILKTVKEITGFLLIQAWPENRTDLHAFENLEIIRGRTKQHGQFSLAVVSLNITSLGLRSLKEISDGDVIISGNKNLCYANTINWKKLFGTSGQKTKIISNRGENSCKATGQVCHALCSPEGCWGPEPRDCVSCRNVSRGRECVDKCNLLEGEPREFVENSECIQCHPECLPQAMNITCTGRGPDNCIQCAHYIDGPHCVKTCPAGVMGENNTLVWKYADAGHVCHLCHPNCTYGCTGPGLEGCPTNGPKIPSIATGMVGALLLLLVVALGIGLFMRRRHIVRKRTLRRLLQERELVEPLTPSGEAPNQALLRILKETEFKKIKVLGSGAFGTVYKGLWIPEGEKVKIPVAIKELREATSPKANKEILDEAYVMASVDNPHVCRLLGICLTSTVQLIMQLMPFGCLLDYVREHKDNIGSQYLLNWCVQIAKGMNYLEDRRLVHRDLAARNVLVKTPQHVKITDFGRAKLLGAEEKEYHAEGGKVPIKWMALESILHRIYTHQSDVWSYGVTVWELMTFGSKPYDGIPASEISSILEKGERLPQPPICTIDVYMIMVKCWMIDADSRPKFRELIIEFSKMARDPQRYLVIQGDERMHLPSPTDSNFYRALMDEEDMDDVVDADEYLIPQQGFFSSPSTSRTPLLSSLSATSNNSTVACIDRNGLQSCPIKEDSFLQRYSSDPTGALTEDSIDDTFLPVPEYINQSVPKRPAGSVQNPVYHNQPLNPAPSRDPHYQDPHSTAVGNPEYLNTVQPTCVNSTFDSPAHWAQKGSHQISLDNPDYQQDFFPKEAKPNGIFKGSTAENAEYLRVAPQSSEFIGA

Row | Inhibitory selectivity of the compound, Ratio of IC50 value of Test 4 to IC50 value of Test 5 [1] | IC50 [1] | IC50 [2] | IC50 (A431 (wild-type EGFR); [7]) | IC50 [3] | Ratio of IC50 value of Test 2 to that of Test 3 [3] | IC50 [4] | SMILES | fraction unbound at 4 h, 2 µM [5] | fraction unbound at 4 h, 2 µM [6] | IC50 (A431 (wild-type EGFR); A-431, 72 h)
1 | > 1923.08 | 5.2 nM | > 10000 nM |  |  |  |  | C=CC(=O)Nc1cc(Nc2ncnc(-n3cc(C)c4cnccc43)n2)c(OC)cc1N(C)CCN(C)C [Compound 18, N-(2-((2-(dimethylamino)ethyl)(methyl)amino)-4-methoxy-5-((4-(3-methyl-1H-pyrrolo[3,2-c)pyridin-1-yl)-1,3,5-triazin-2-yl)amino)phenyl)acrylamide] |  |  | 
2 |  |  |  | 579 nM | 3 nM | 193 | 15.1 nM | C=CC(=O)Nc1cc(Nc2ncnc(-n3ccc4ncccc43)n2)c(OC)cc1N(C)CCN(C)C [Compound 6, N-(5-((4-(1H-pyrrolo[3,2-b]pyridin-1-yl)-1,3,5-triazin-2-yl)amino)-2-((2-(dimethylamino)ethyl)(methyl)amino)-4-methoxyphenyl)acrylamide] |  |  | 
3 | >2500.00 | 4 nM | > 10000 nM | 758 nM | 4 nM | 189.5 | 11.4 nM | C=CC(=O)Nc1cc(Nc2ncnc(-c3cnc4c(C(F)(F)F)cccn34)n2)c(OC)cc1N(C)CCN(C)C [Compound 28, N-(2-((2-(dimethylamino)ethyl)(methyl)amino)-4-methoxy-5-((4-(8-(trifluoromethyl)imidazolo[1,2-a]pyridin-3-yl)-1,3,5-triazin-2-yl)amino)phenyl)acrylamide] |  |  | 
4 | > 1851.85 | 5.4 nM | > 10000 nM |  |  |  |  | C=CC(=O)Nc1cc(Nc2ncnc(-n3nc(C)c4ccc(F)cc43)n2)c(OC)cc1N(C)CCN(C)C [Compound 20, N-(2-((2-(dimethylamino)ethyl)(methyl)amino)-5-((4-(6-fluoro-3-methyl-1H-indazol-1-yl)-1,3 ,5-triazin-2-yl)amino)-4-methoxyphenyl)acrylamide] |  |  | 
5 | >2941.18 | 3.4 nM | > 10000 nM |  |  |  | 11.1 nM | C=CC(=O)Nc1cc(Nc2ncnc(N3CC(C)(C)c4ncccc43)n2)c(OC)cc1N(C)CCN(C)C [Compound 11, N-(5-((4-(3,3-dimethyl-2,3-dihydro-1H-pyrrolo[3,2-b]pyridin-1-yl)-1,3,5-triazin-2-yl)amino)-2-((2-(dimethylamino)ethyl)(methyl)amino)-4-methoxyphenyl)acrylamide] | 0.107 | 0.077 | 
6 | >2702.70 | 3.7 nM | > 10000 nM | 718 nM | 4 nM | 179.5 | 12.1 nM | C=CC(=O)Nc1cc(Nc2ncnc(-c3cnc4c(C)cccn34)n2)c(OC)cc1N(C)CCN(C)C [Compound 26, N-(2-((2-(dimethylamino)ethyl)(methyl)amino)-4-methoxy-5-((4-(8-methylimidazolo[1,2-a]pyridin-3-yl)-1,3,5-triazin-2-yl)amino)phenyl)acrylamide] |  |  | 
7 | >3125.00 | 3.2 nM | > 10000 nM | 883 nM | 5 nM | 176.6 | 11.8 nM | C=CC(=O)Nc1cc(Nc2ncnc(-c3cnc4c(F)cccn34)n2)c(OC)cc1N(C)CCN(C)C [Compound 27, N-(2-((2-(dimethylamino)ethyl)(methyl)amino)-5-((4-(8-fluoroimidazolo[1,2-a]pyridin-3-yl)-1 ,3,5-triazin-2-yl)amino)-4-methoxyphenyl)acrylamide] |  |  | 
8 | >2222.22 | 4.5 nM | > 10000 nM | 941 nM | 4 nM | 235.3 | 10.6 nM | C=CC(=O)Nc1cc(Nc2ncnc(-n3nc(F)c4ccccc43)n2)c(OC)cc1N(C)CCN(C)C [Compound 29, N-(2-((2-(dimethylamino)ethyl)(methyl)amino)-5-((4-(3-fluoro-1H-indazol-1-yl)-1,3,5-triazin-2-yl)amino)-4-methoxyphenyl)acrylamide] |  |  | 

Row | SMILES | Inhibitory selectivity of the compound, Ratio of IC50 value of Test 4 to IC50 value of Test 5 [1] | IC50 [1] | IC50 [2] | IC50 (A431 (wild-type EGFR); [7]) | IC50 [3] | Ratio of IC50 value of Test 2 to that of Test 3 [3] | IC50 [4] | fraction unbound at 4 h, 2 µM [5] | fraction unbound at 4 h, 2 µM [6] | IC50 (A431 (wild-type EGFR); A-431, 72 h)
9 | C=CC(=O)Nc1cc(Nc2nccc(-c3cn(C)c4ccccc34)n2)c(OC)cc1N(C)CCN(C)C [Osimertinib (AZD9291), Osimertinib, reference compound] |  | 7.1 nM | 3120 nM |  | […] |  |  | 0.025 | 0.005 | […]
